The results in this text go back to US11149033B2, “Heteroaryl compound, enantiomer, diastereomer or pharmaceutically acceptable salt thereof, and antiviral composition containing same as active ingredient” (priority 2016, dated 2021).

In general, melting point refers to the temperature, or range, at which the solid turns liquid.

A short description of data set [1]: in vitro.
Where [2] appears, read: CC50, third EC50/CC50 column pair (c7), beside the EC50 of c6.
Where [3] appears, read: CC50 B/Florida/04/2006, cytotoxicity in the B/Florida/04/2006 assay.

In the case of `Clc1ccccc1/C=C/c1nnc(Cc2ccc(Br)cc2)o1` [Compound 166, 2-(4-bromobenzyl)-5-(2-chlorostyryl)-1,3,4-oxadiazole], the melting point is 136.3 °C. The same molecule registered a CC50 in data set [1] (CC50, beside the EC50 of c2) greater than 50 µM. The molecule further gave a CC50 in data set [1] (CC50, beside the EC50 of c4) greater than 50 µM. The CC50 in data set [1] (setting [2]) is greater than 50 µM.

For the molecule `CC(C)c1ccccc1/C=C/c1nnc(Cc2ccc(OC(F)(F)F)cc2)o1` [Compound 81, (E)-2-(2-isopropylstyryl)-5-(4-(trifluoromethoxy)benzyl)-1,3,4-oxadiazole], the melting point was determined as 91.6 °C. For the same molecule, the CC50 in data set [1] (CC50, beside the EC50 of c2) was greater than 50 µM. For the same molecule, in data set [1] (CC50, beside the EC50 of c4), the CC50 is greater than 50 µM. The molecule also registered a CC50 in data set [1] (setting [2]) greater than 50 µM.

Regarding `Fc1ccc(/C=C/c2nnc(Cc3ccc(F)c(Br)c3)o2)c(Cl)c1` [Compound 207, 2-(3-bromo-4-fluorobenzyl)-5-(2-chloro-4-fluorostyryl)-1,3,4-oxadiazole], the melting point stood at 123 °C. Also, in data set [1] (CC50, beside the EC50 of c2), the CC50 was greater than 50 µM. In addition, the CC50 in data set [1] (CC50, beside the EC50 of c4) was greater than 50 µM. In data set [1] (setting [2]), this molecule gave a CC50 greater than 50 µM.

In turn, `Fc1ccc(/C=C/c2nnc(Cc3cccc(Br)c3)o2)c(F)c1` [Compound 189, 2-(3-bromobenzyl)-5-(2,4-difluorostyryl)-1,3,4-oxadiazole] came in with a melting point of 87.7 °C. The CC50 in data set [1] (CC50, beside the EC50 of c2) is greater than 50 µM. The CC50 in data set [1] (CC50, beside the EC50 of c4) is greater than 50 µM. The molecule also showed a CC50 in data set [1] (setting [2]) greater than 50 µM.

With `Cc1nn(C(=O)c2ccc(Sc3ccccc3C(C)C)o2)c(C)c1Br` [Compound 56, (4-bromo-3,5-dimethyl-1H-pyrazol-1-yl)(5-((2-isopropylphenyl)thio)furan-2-yl)methanone], the melting point worked out at 169.7 °C. Moreover, in data set [1] (setting [3]), the CC50 was greater than 50 µM.

For `Cc1cc(Cc2nnc(/C=C/c3ccc(F)cc3Cl)o2)ccc1Br` [Compound 176, (E)-2-(4-bromo-3-methylbenzyl)-5-(2-chloro-4-fluorostyryl)-1,3,4-oxadiazole], the melting point is 119.9 °C. Also, the CC50 in data set [1] (CC50, beside the EC50 of c2) was determined as 6.53 µM. The CC50 in data set [1] (CC50, beside the EC50 of c4) was greater than 50 µM. The CC50 in data set [1] (setting [2]) is greater than 50 µM.

`Clc1ccc(/C=C/c2nnc(Cc3ccc(Br)cc3)o2)cc1Cl` [Compound 149, 2-(4-bromobenzyl)-5-(3,4-dichlorostyryl)-1,3,4-oxadiazole] came in with a melting point of 164.5 °C. The CC50 in data set [1] (CC50, beside the EC50 of c2) was greater than 50 µM. The molecule also showed a CC50 in data set [1] (CC50, beside the EC50 of c4) greater than 50 µM. For the same molecule, the CC50 in data set [1] (setting [2]) is greater than 50 µM.

As for `Cc1ccccc1Sc1nnc(CCn2nc(C)c(Br)c2C)o1` [Compound 54, 2-(2-(4-bromo-3,5-dimethyl-1H-pyrazol-1-yl)ethyl)-5-(o-tolylthio)-1,3,4-oxadiazole], the melting point came out at 103.6 °C. The molecule further gave a CC50 in data set [1] (setting [3]) greater than 50 µM.

`Cc1cc(Cc2nnc(/C=C/c3ccccc3C(C)C)o2)ccc1Br` [Compound 172, 2-(4-bromo-3-methylbenzyl)-5-(2-isopropylstyryl)-1,3,4-oxadiazole] had a melting point of 117.1 °C. This molecule also showed a CC50 in data set [1] (CC50, beside the EC50 of c2) greater than 50 µM. The same molecule registered a CC50 in data set [1] (CC50, beside the EC50 of c4) greater than 50 µM. Moreover, the CC50 in data set [1] (setting [2]) was greater than 50 µM.

Molecule `Cc1cccc(C)c1Nc1nnc(C(=O)c2ccc(F)c(Cl)c2)o1` [Compound 78, (3-chloro-4-fluorophenyl)(5-((2,6-dimethylphenyl)amino)-1,3,4-oxadiazol-2-yl)methanone] had a melting point of 252.8 °C. The CC50 in data set [1] (setting [3]) is greater than 50 µM.

Turning to `Brc1ccc(Cc2nnc(/C=C/c3ccccc3Br)o2)cc1` [Compound 128, (E)-2-(4-bromobenzyl)-5-(2-bromostyryl)-1,3,4-oxadiazole], the melting point was determined as 156.1 °C. Moreover, in data set [1] (CC50, beside the EC50 of c2), the CC50 is greater than 50 µM. This molecule also returned a CC50 in data set [1] (CC50, beside the EC50 of c4) greater than 50 µM. This molecule yielded a CC50 in data set [1] (setting [2]) greater than 50 µM.

Molecule `Cc1ccccc1CSc1ncc(C(=O)n2nc(C)c(Br)c2C)o1` [Compound 55, (4-bromo-3,5-dimethyl-1H-pyrazol-1-yl)(2-((2-methylbenzyl)thio)oxazol-5-yl)methanone] registered a melting point of 123.6 °C. The molecule also returned a CC50 in data set [1] (setting [3]) greater than 50 µM.

Molecule `Clc1ccc(-c2ccccc2/C=C/c2nnc(Cc3ccc(Br)cc3)o2)cc1` [Compound 153, 2-(4-bromobenzyl)-5-(2-(4′-chloro-[1,1′-biphenyl]-2-yl)vinyl)-1,3,4-oxadiazole] returned a melting point of 123.7 °C. In addition, the CC50 in data set [1] (CC50, beside the EC50 of c2) is greater than 50 µM. The same molecule yielded a CC50 in data set [1] (CC50, beside the EC50 of c4) greater than 50 µM. For the same molecule, the CC50 in data set [1] (setting [2]) is greater than 50 µM.

Turning to `Clc1cccc(Cl)c1/C=C/c1nnc(Cc2ccc(Br)cc2)o1` [Compound 168, 2-(4-bromobenzyl)-5-(2,6-dichlorostyryl)-1,3,4-oxadiazole], the melting point is 139.3 °C. This molecule also returned a CC50 in data set [1] (CC50, beside the EC50 of c2) greater than 50 µM. The same molecule returned a CC50 in data set [1] (CC50, beside the EC50 of c4) greater than 50 µM. In data set [1] (setting [2]), the CC50 is greater than 50 µM.

`Cc1cc(F)cc(Cc2nnc(/C=C/c3ccc(F)cc3Cl)o2)c1` [Compound 255, 2-(2-chloro-4-fluorostyryl)-5-(3-fluoro-5-methylbenzyl)-1,3,4-oxadiazole] gave a melting point of 117 °C.

With `FC(F)(F)c1ccccc1/C=C/c1nnc(Cc2cccc(Br)c2)o1` [Compound 281, 2-(3-bromobenzyl)-5-(2-(trifluoromethyl)styryl)-1,3,4-oxadiazole], the melting point is 107.2 °C.

In turn, `Brc1ccc(Cc2nnc(-c3cc4ccccc4o3)o2)cc1` [Compound 156, 2-(benzofuran-2-yl)-5-(4-bromobenzyl)-1,3,4-oxadiazole] returned a melting point of 145.7 °C. In addition, the CC50 in data set [1] (CC50, beside the EC50 of c2) was greater than 50 µM. The CC50 in data set [1] (CC50, beside the EC50 of c4) was greater than 50 µM. Moreover, the CC50 in data set [1] (setting [2]) is greater than 50 µM.

Take `Clc1cccc(/C=C/c2nnc(Cc3ccc(Br)cc3)o2)c1` [Compound 167, 2-(4-bromobenzyl)-5-(3-chlorostyryl)-1,3,4-oxadiazole]: the melting point worked out at 105.1 °C. Moreover, the CC50 in data set [1] (CC50, beside the EC50 of c2) was greater than 50 µM. The same molecule registered a CC50 in data set [1] (CC50, beside the EC50 of c4) greater than 50 µM. The molecule also gave a CC50 in data set [1] (setting [2]) greater than 50 µM.

For `Fc1ccc(/C=C/c2nnc(Cc3cccc(Br)c3)o2)c(C(F)(F)F)c1` [Compound 264, 2-(3-bromobenzyl)-5-(4-fluoro-2-(trifluoromethyl)styryl)-1,3,4-oxadiazole], the melting point is 137.3 °C.

`Fc1cc(Cl)ccc1/C=C/c1nnc(Cc2cccc(Br)c2)o1` [Compound 190, 2-(3-bromobenzyl)-5-(4-chloro-2-fluorostyryl)-1,3,4-oxadiazole] yielded a melting point of 107.2 °C. This molecule also came in with a CC50 in data set [1] (CC50, beside the EC50 of c4) of 40.1 µM.

`Fc1cc(F)c(/C=C/c2nnc(Cc3cccc(Br)c3)o2)c(Br)c1` [Compound 290, 2-(2-bromo-4,6-difluorostyryl)-5-(3-bromobenzyl)-1,3,4-oxadiazole] returned a melting point of 118.2 °C.

For the molecule `Clc1ncccc1/C=C/c1nnc(Cc2cccc(Br)c2)o1` [Compound 225, 2-(3-bromobenzyl)-5-(2-(2-chloropyridin-3-yl)vinyl)-1,3,4-oxadiazole], the melting point was found to be 162.5 °C.

The molecule `COc1ccc2cccc(Cc3nnc(/C=C/c4ccc(F)cc4Cl)o3)c2c1` [Compound 298, 2-(2-chloro-4-fluorostyryl)-5-((7-methoxynaphthalen-1-yl)methyl)-1,3,4-oxadiazole] came in with a melting point of 179.9 °C.

As to `Brc1ccc(Nc2nnc(/C=C/c3cccc4ncccc34)o2)cc1` [Compound 121, (E)-N-(4-bromophenyl)-5-(2-(quinolin-5-yl)vinyl)-1,3,4-oxadiazol-2-amine], the melting point amounted to 246.5 °C. The molecule also displayed a CC50 in data set [1] (CC50, beside the EC50 of c2) greater than 50 µM. The CC50 in data set [1] (CC50, beside the EC50 of c4) was greater than 50 µM. Besides, in data set [1] (setting [2]), the CC50 is greater than 50 µM.

With `Fc1ccc(/C=C/c2nnc(Cc3cc(Br)ccc3F)o2)c(Cl)c1` [Compound 258, 2-(5-bromo-2-fluorobenzyl)-5-(2-chloro-4-fluorostyryl)-1,3,4-oxadiazole], the melting point is 156.6 °C.

On to `Fc1ccc(/C=C/c2nnc(Cc3cccc(Cl)n3)o2)c(Cl)c1` [Compound 219, 2-(2-chloro-4-fluorostyryl)-5-((6-chloropyridin-2-yl)methyl)-1,3,4-oxadiazole], for which the melting point was found to be 145.2 °C.

Molecule `Fc1ccc(/C=C/c2nnc(Cc3cccc(Br)c3)o2)c(Br)c1` [Compound 215, 2-(2-bromo-4-fluorostyryl)-5-(3-bromobenzyl)-1,3,4-oxadiazole] registered a melting point of 129.5 °C.

The molecule `Fc1ccc(/C=C/c2nnc(Cc3ccc(F)c(Br)c3)o2)c(Br)c1` [Compound 266, 2-(3-bromo-4-fluorobenzyl)-5-(2-bromo-4-fluorostyryl)-1,3,4-oxadiazole] returned a melting point of 124.9 °C.

In turn, `Cc1ccc(Cc2nnc(/C=C/c3ccc(F)cc3F)o2)cc1Br` [Compound 262, 2-(3-bromo-4-methylbenzyl)-5-(2,4-difluorostyryl)-1,3,4-oxadiazole] came in with a melting point of 132 °C.

The molecule `Fc1ccc(/C=C/c2nnc(Cc3ccccc3Br)o2)c(Cl)c1` [Compound 222, 2-(2-bromobenzyl)-5-(2-chloro-4-fluorostyryl)-1,3,4-oxadiazole] yielded a melting point of 155.2 °C.

The molecule `c1ccc(-c2cccc(CSc3nnc(Cn4cc(-c5ccccc5)cn4)o3)c2)cc1` had a melting point of 74.1 °C.

`FC(F)(F)Oc1ccccc1/C=C/c1nnc(Cc2cccc(Br)c2)o1` [Compound 256, 2-(3-bromobenzyl)-5-(2-(trifluoromethoxy)styryl)-1,3,4-oxadiazole] gave a melting point of 103.6 °C.

Turning to `Fc1ccc(/C=C/c2nnc(Cc3cc(Br)ccn3)o2)c(Cl)c1` [Compound 283, 2-((4-bromopyridin-2-yl)methyl)-5-(2-chloro-4-fluorostyryl)-1,3,4-oxadiazole], the melting point amounted to 149.5 °C.

Turning to `O=C(Nc1ccc(F)cc1Cl)c1nnc(Cc2cccc(Br)c2)o1` [Compound 244, 5-(3-bromobenzyl)-N-(2-chloro-4-fluorophenyl)-1,3,4-oxadiazole-2-carboxamide], the melting point was 165.8 °C.

With `Fc1ccc(/C=C/c2nnc(CCc3cccc(Br)c3)o2)c(Cl)c1` [Compound 223, 2-(3-bromophenethyl)-5-(2-chloro-4-fluorostyryl)-1,3,4-oxadiazole], the melting point worked out at 108.7 °C.
